Article PMC7395068, “The evolution of strategies to minimise the risk of human drug-induced liver injury (DILI) in drug discovery and development” (Archives of Toxicology, 2020)
Read-outs that look alike come from different tables or passages of the source.

Assays:
HepaRG spheroids = assay: Combined HCI (HCS) and cellular ATP 3D assay in HepaRG spheroids; settings: for AC50 / minimal effective concentration: Homo sapiens
human hepatocytes = settings: cited from earlier work
[1] = plasma free fraction; cited from earlier work
[2] = Plasma free fraction (fu) and unbound Cmax (Cmax,u); format: in vitro ADME, human; settings: unbound plasma Cmax
Description: The prediction of DILI severity was evaluated further using the 3D combined HCI assays using plasma-free fraction. The majority of fu values were obtained from literature, when unavailable in-house prediction was utilised. Unbound plasma Cmax concentrations (Cmax,u) were derived by multiplying total plasma Cmax with the corresponding free fraction (fu) for each compound.

HepG2 cells [3] = settings: cited from earlier work
[4] = system: HepG2 cells, primary human hepatocytes; settings: In vitro Assay; ref Garside 2014; cited from earlier work
HepG2 cells [5] = settings: cited from earlier work; remark: listed apart in the source
[6] = system: HepG2 C3A spheroid, BSEP, Glu/Gal in HepG2 cells, bioactivation; settings: cited from earlier work
rBsep = settings: cited from earlier work
hLiMTs [7] = assay: Combined HCI (HCS) and cellular ATP 3D assay in hLiMTs; settings: for AC50 / minimal effective concentration: Homo sapiens
PHH spheroids = settings: cited from earlier work
[8] = system: THLE or HepG2 cells, isolated mitochondria, BSEP; settings: cited from earlier work
[9] = cited from earlier work
[10] = read-out: Human plasma Cmax; total plasma Cmax.tot, median of 9 literature references; cited from earlier work
Upcyte human hepatocytes = settings: In vitro Assay; ref Tolosa 2019; cited from earlier work
[11] = ref Chen 2011; cited from earlier work
PHH = settings: cited from earlier work
hLiMTs [12] = settings: cited from earlier work
[13] = system: THLE-Null and THLE-3A4 cells; settings: In vitro Assay; ref Gustafsson 2014; cited from earlier work
[14] = cited from earlier work; remark: listed apart in the source
HepG2 cells [15] = settings: cited from earlier work; remark: listed apart in the source
[16] = Microtissue model structural based (HCI), combined HCS and ATP, MEC < 25 × Cmax.tot cut-off
[17] = In vitro Assay, ref Persson 2013
[18] = Modeled in vitro assays (cytotoxicity, mitochondrial dysfunction, BSEP), ref Aleo et al. 2019
[19] = In vitro Assay, ref Proctor 2017

CN(C)CCCN1c2ccccc2Sc2ccc(Cl)cc21 [chlorpromazine, reference compound]
HepaRG <25x Avg Cmax ATP (HepaRG spheroids; HepaRG, ATP endpoint, cut-off <25x Avg Cmax): +ve
HepaRG <100x Avg Cmaxu ATP (HepaRG spheroids; HepaRG, ATP endpoint, cut-off <100x Avg Cmaxu): +ve (<100x Avg Cmaxu)
HepaRG <25x Avg Cmax HCS (HepaRG spheroids; HepaRG, HCS endpoints, cut-off <25x Avg Cmax): +ve
HepaRG <100x Avg Cmaxu HCS (HepaRG spheroids; HepaRG, HCS endpoints, cut-off <100x Avg Cmaxu): +ve (<100x Avg Cmaxu)
HepaRG <25x Avg Cmax All (HepaRG spheroids; HepaRG, all endpoints (ATP and HCS), cut-off <25x Avg Cmax): +ve
HepaRG Cmax max All (HepaRG spheroids; HepaRG, all endpoints, Cmax max used): +ve
HepaRG Cmax min All (HepaRG spheroids; HepaRG, all endpoints, Cmax min used): +ve
HepaRG <10 uM All (HepaRG spheroids; HepaRG, all endpoints, cut-off <10 uM): +ve (<10 uM)
HepaRG <100x Avg Cmaxu All (HepaRG spheroids; HepaRG, all endpoints, cut-off <100x Avg Cmaxu): +ve (<100x Avg Cmaxu)
AC50 (HepaRG spheroids; HepaRG, read-out: ATP endpoint AC50): 6.33 µM
minimal effective concentration (HepaRG spheroids; HepaRG, read-out: ATP endpoint MEC): 3.45 µM
AC50 (HepaRG spheroids; HepaRG, read-out: HCS endpoint AC50): 8.8 µM
minimal effective concentration (HepaRG spheroids; HepaRG, read-out: HCS endpoint MEC): 1.72 µM
DILI prediction HepaRG spheroids (HCS-MEC) (HepaRG spheroids; [16]): +VE (MEC < 25 × Cmax.tot cut-off)
Structural based (HCI) (human hepatocytes; In vitro Assay, ref Xu 2008): +VE
DILI in vitro assay prediction, Xu (2008) (human hepatocytes; Structural based (HCI), human hepatocytes, ref Xu et al. 2008): +VE
fu [1]: 0.050
Human plasma Cmax,u [2]: 47 nM
Cluser analysis (HepG2 cells [3]; [17]): +VE
Structural based (HCI) (HepG2 cells [3]; [17]): +VE
DILI in vitro assay prediction, Persson (2013) (HepG2 cells [3]; Structural based (HCI), HepG2, ref Persson et al. 2013): +VE
Cluster 1-6 +VE Assay [4]: +VE
Structural based (HCI) (HepG2 cells [5]; In vitro Assay, ref Tolosa 2012): +VE
DILI in vitro assay prediction, Tolosa (2012) (HepG2 cells [5]; Structural based (HCI), HepG2, ref Tolosa et al. 2012): +VE
Bayesian Machine Learning DILI prediction, Williams (2019) ([6]; Bayesian modeling, ref Williams et al. 2019): +VE
Bayesian Machine Learning ([6]; In vitro Assay, ref Williams 2019): +VE
Inhibition of rBsep cutoff<1& cmax u>.2 (rBsep; In vitro Assay, ref Dawson 2012): -VE
Inhibition of rBsep cutoff<3 (rBsep): +VE
AC50 (hLiMTs [7]; read-out: ATP endpoint AC50): 3.73 µM
minimal effective concentration (hLiMTs [7]; read-out: ATP endpoint MEC): 2.7 µM
AC50 (hLiMTs [7]; read-out: HCS endpoint AC50): 6.41 µM
minimal effective concentration (hLiMTs [7]; read-out: HCS endpoint MEC): 2.47 µM
DILI prediction hLiMTs (HCS-MEC) (hLiMTs [7]; [16]): +VE (MEC < 25 × Cmax.tot cut-off)
hLiMTs <25x Avg Cmax ATP (hLiMTs [7]; hLiMTs, ATP endpoint, cut-off <25x Avg Cmax): +ve
hLiMTs <100x Avg Cmaxu ATP (hLiMTs [7]; hLiMTs, ATP endpoint, cut-off <100x Avg Cmaxu): +ve (<100x Avg Cmaxu)
hLiMTs <25x Avg Cmax HCS (hLiMTs [7]; hLiMTs, HCS endpoints, cut-off <25x Avg Cmax): +ve
hLiMTs <100x Avg Cmaxu HCS (hLiMTs [7]; hLiMTs, HCS endpoints, cut-off <100x Avg Cmaxu): +ve (<100x Avg Cmaxu)
hLiMTs <25x Avg Cmax All (hLiMTs [7]; hLiMTs, all endpoints (ATP and HCS), cut-off <25x Avg Cmax): +ve
hLiMTs Cmax max All (hLiMTs [7]; hLiMTs, all endpoints, Cmax max used): +ve
hLiMTs Cmax min All (hLiMTs [7]; hLiMTs, all endpoints, Cmax min used): +ve
hLiMTs <10 uM All (hLiMTs [7]; hLiMTs, all endpoints, cut-off <10 uM): +ve (<10 uM)
hLiMTs <100x Avg Cmaxu All (hLiMTs [7]; hLiMTs, all endpoints, cut-off <100x Avg Cmaxu): +ve (<100x Avg Cmaxu)
hLiMTs ATP <20 x Cmax (PHH spheroids; In vitro Assay, ref Vorrink 2018): +VE (IC20 < 20 × Cmax.tot cut-off)
DILI in vitro assay prediction, Vorrink (2018) (PHH spheroids; PHH spheroids, ATP, 14 days, IC20 < 20 × Cmax.tot, ref Vorrink et al. 2018): +VE (IC20 < 20 × Cmax.tot cut-off)
Partition Hybrid HRM Score ([8]; In vitro Assay, ref Aleo 2019): +VE
Ro2 Hybrid HRM Score ([8]; In vitro Assay, ref Aleo 2019): +VE
Partition Hybrid HRM Score ≥4, Aleo (2019) [8, 18]: +VE (Partition Hybrid HRM Score ≥4)
Partition Hybrid HRM Score ≥8, Aleo (2019) [8, 18]: -VE
Rule of Two hybrid HRM Score ≥3, Aleo (2019) [8, 18]: +VE (Rule of Two hybrid HRM Score ≥3)
Rule of Two hybrid HRM Score ≥8, Aleo (2019) [8, 18]: -VE
DILI severity category (Chen et al. [2016]) ([9]; LTKB DILIrank category, ref Chen et al. 2016): Less
DILI severity category (Chen 2016) ([9]; human DILI classification, LTKB DILIrank, ref Chen et al. 2016): Less
DILI severity category ([9]; human DILI severity, ref Chen et al.): Less
DILI +VE (5-8), DILI -VE (-4) ([9]; ref Chen 2016): +VE
DILI severity category ([9]; ref Chen 2016): vLess-DILI-Concern
Cmax [10]: 941 nM
Upcytes multi donor assay 14day data (Upcyte human hepatocytes): +VE
DILI Score (FDA) (1-8) [11]: 2
PHH/100xCmax, Proctor (2017) (PHH; 2D PHH, ATP, IC50 < 100 × Cmax.tot, ref Proctor et al. 2017): +VE (IC50 < 100 × Cmax.tot)
PHH/100uM, Proctor (2017) (PHH; 2D PHH, ATP, IC50 threshold 100 µM, ref Proctor et al. 2017): +VE (IC50 threshold of 100 µM)
PHH ATP <100uM (PHH; [19]): +VE (IC50 threshold of 100 µM)
hLiMTs ATP <100uM (hLiMTs [12]; [19]): +VE (IC50 threshold of 100 µM)
hLiMTs/100xCmax, Proctor (2017) (hLiMTs [12]; hLiMTs, ATP, IC50 < 100 × Cmax.tot, ref Proctor et al. 2017): +VE (IC50 < 100 × Cmax.tot)
hLiMTs/100uM, Proctor (2017) (hLiMTs [12]; hLiMTs, ATP, IC50 threshold 100 µM, ref Proctor et al. 2017): +VE (IC50 threshold of 100 µM)
THLE-Null [13]: +VE
Assigned DILI category ([14]; Chen et al. 2016 or literature alignment, ref Chen et al. 2016): 2
In vivo DILI ([14]; […]): +VE
In vivo DILI ([14]; ref Aleo 2019): +VE
In vivo DILI ([14]; ref Dawson 2012): +VE
In vivo DILI ([14]; ref Garside 2014): +VE
In vivo DILI ([14]; ref Gustafsson 2014): +VE
In vivo DILI ([14]; ref O'Brien 2006): +VE
In vivo DILI ([14]; ref Persson 2013): +VE
In vivo DILI ([14]; ref Proctor 2017): +VE
In vivo DILI ([14]; ref Tolosa 2012): +VE
In vivo DILI ([14]; ref Tolosa 2019): +VE
In vivo DILI ([14]; ref Vorrink 2018): +VE
In vivo DILI ([14]; ref Williams 2019): +VE
In vivo DILI ([14]; ref Xu 2008): +VE
Structural based (HCI) (HepG2 cells [15]; In vitro Assay, ref O'Brien 2006): +VE
DILI in vitro assay prediction, O'Brien (2006) (HepG2 cells [15]; Structural based (HCI), HepG2, ref O'Brien et al. 2006): +VE (lowest HCI endpoint IC50 (or in the absence of dose–response < 100 µM) < 30 × total human plasma exposure levels (Cmax.tot))
